How the values were obtained:
[1] = system: male Sprague-Dawley rats; test: Hemodynamic measurement (RVSP by right cardiac catheterization) in MCT-modelled PAH rats; assay type: in vivo
Procedure: (§1) Twenty-eight 7-week-old male Sprague-Dawley rats (average weight of 200-250 g) were purchased from Vital River and were raised at the experimental site for 1 week of acclimatization (temperature 20°C-26°C, humidity 30%-70%, light-dark cycle ratio 1:1) until they were 8 weeks old.
(§2) Twenty-eight rats were randomized into the following 6 groups, including dosing groups, positive control groups, a negative control group and a healthy control group, and each was marked with ear tags.
(§3) • (1) Preparation of monocrotaline (MCT) solution: An adequate amount of MCT was weighed into a 50 mL solution of 20% ethanol-normal saline. After gentle shaking, the solution was transferred to a 50-mL centrifuge tube, and placed tilted in a thermostatic shaker at 37°C, 220 rpm for 12-14 hours to fully dissolve until no visible crystalline particles observed. • (2) Injection of MCT solution: The skin on the dorsal cervical region of the rats was gently lifted, MCT solution was subcutaneously injected at a dose of 60 mg/kg using a 1-mL syringe and the day was recorded as Day 0. • (3) Healthy control: The same volume of normal saline was injected in the same manner.
(§4) According to the concentration of 0.6 mg/mL and 1.2 mg/mL (3-mg/kg/day and 6-mg/kg/day dose groups), appropriate amounts of the test compound were weighed and dissolved in corresponding volume of pure water by shaking to obtain transparent solution, respectively; • (2) The resulting solutions were stored in a 4°C refrigerator. Remove and equilibrate to room temperature before use;
(§5) Starting from Day 14, the rats were weighed daily, and the corresponding solutions (test compound or normal saline) were administered intragastrically according to the grouping protocol until Day 27, for a total of 14 days; the intragastric dose was 0.5 mL/100 g, and the body weight and survival data of the rats were recorded.
On Day 28, the hemodynamic status of the rats was assessed using right cardiac catheterization: • (1) The PE-50 catheter, pressure transducer and pressure measuring workstation were prepared; the tubing was rinsed with heparinized saline to ensure that no bubbles remained in the tubing; the catheter was corrected to zero; • (2) The rats were anesthetized with 2% isoflurane at a flow rate of 2 L/min, and their limbs and incisors were fixed on the operating table with the cranial end to the operator; • (3) The fur on the surgical area of cervical region was shaved; • (4) The cervical skin was cut along the midline, pulled and fixed using hemostats, and the tissue was separated layer by layer using scissors to expose the right internal jugular vein; • (5) The internal jugular vein was bluntly dissected and isolated using hemostats; • (6) The distal end of the internal jugular vein was ligated using 4-0 sutures, and a suture was passed through the proximal end for later use; • (7) A V-shaped incision was made in the internal jugular vein using ophthalmic scissors, and a PE-50 catheter was inserted through the incision. After the catheter was placed, the pre-placed suture at the proximal end of the internal jugular vein was ligated to secure the catheter; • (8) The catheter reached the right atrium and right ventricle in turn; the right atrial pressure and right ventricular pressure were recorded; at least 5 stable waveforms were recorded at each site; 5 continuous waveforms were taken as segments, and more than 2 segments were intercepted to calculate the right ventricular systolic pressure (RVSP); • (9) The PE-50 catheter was removed and the examination was completed.

[2] = system: male Sprague-Dawley rats; test: Fulton index measurement RV/(LV+S) in MCT-modelled PAH rats; assay type: in vivo
Procedure: as §1, §2, §3, §4, §5
The tube was shaken upside down 6-8 times to mix; • (3) The lungs and heart were exposed by further opening the chest cavity; • (4) The left atrial appendage was cut open, a tube of heparinized saline was slowly injected using a 5-mL syringe into the right atrial appendage to flush the pulmonary vessels; • (5) The rat heart, lung, liver, spleen and kidney tissues were kept and frozen, and fixed with formaldehyde solution.
After separating the heart, the non-ventricular parts (such as the atria, blood vessels, and valve rings) were cut off. The intraventricular thrombus was removed as much as possible using forceps. The right ventricle (RV) and left ventricle (LV) + ventricular septum (LV+S) were separated by cutting along tense junction between the RV and interventricular septum (S) using straight scissors. The tissues were dried with gauze and weighed separately. RV/(LV+S) was calculated as the Fulton index. [drawing 107]

[3] = Dissolution in water when preparing the test compound solutions; assay type: physicochemical; details: pure water; 0.6 mg/mL and 1.2 mg/mL gave transparent solution
Procedure: as §4

[4] = 3 mg/kg/day intragastric from Day 14, MCT 60 mg/kg rats, negative control 63±7.34, healthy control 22±2.41
[5] = 6 mg/kg/day intragastric from Day 14, MCT 60 mg/kg rats, negative control 63±7.34, healthy control 22±2.41
[6] = 3 mg/kg/day intragastric from Day 14, MCT 60 mg/kg rats, RV/(LV+S), negative control 0.61, healthy control 0.29
[7] = 6 mg/kg/day intragastric from Day 14, MCT 60 mg/kg rats, RV/(LV+S), negative control 0.61, healthy control 0.29
[8] = 60(30mpk bid) mg/kg/day, Group 7, same experimental method

Compound	RVSP mmHg [1, 4] [mmHg]	RVSP mmHg ([1]; 3 mg/kg/day intragastric from Day 14, MCT 60 mg/kg rats, negative control 63±7.34, healthy control 22±2.41, listed as Compound 1M) [mmHg]	RVSP mmHg [1, 5] [mmHg]	RVSP mmHg ([1]; 6 mg/kg/day intragastric from Day 14, MCT 60 mg/kg rats, negative control 63±7.34, healthy control 22±2.41, listed as Compound 1H)	Fulton index [2, 6]	Fulton index ([2]; 3 mg/kg/day intragastric from Day 14, MCT 60 mg/kg rats, RV/(LV+S), negative control 0.61, healthy control 0.29, listed as Compound 1M)	Fulton index [2, 7]	Fulton index ([2]; 6 mg/kg/day intragastric from Day 14, MCT 60 mg/kg rats, RV/(LV+S), negative control 0.61, healthy control 0.29, listed as Compound 1H)	Solubility in water [3]	RVSP mmHg ([1]; 3 mg/kg/day intragastric from Day 14, MCT 60 mg/kg rats, negative control 63±7.34, healthy control 22±2.41, listed as Compound C1M)	RVSP mmHg ([1]; 6 mg/kg/day intragastric from Day 14, MCT 60 mg/kg rats, negative control 63±7.34, healthy control 22±2.41, listed as Compound C1H)	Fulton index ([2]; 3 mg/kg/day intragastric from Day 14, MCT 60 mg/kg rats, RV/(LV+S), negative control 0.61, healthy control 0.29, listed as Compound C1M)	Fulton index ([2]; 6 mg/kg/day intragastric from Day 14, MCT 60 mg/kg rats, RV/(LV+S), negative control 0.61, healthy control 0.29, listed as Compound C1H)	RVSP mmHg [1, 8] [mmHg]	Fulton index [2, 8]
CCCCC[C@H](O)CC[C@H]1[C@H](O)[C@@H](CC)[C@@H]2Cc3c(cccc3OCC(=O)O)C[C@@H]21 [Compound 1]	41 ± 16.27	41±16.27	22 ± 4.36	22+4.36 mmHg	0.37 ± 0.12	0.37+0.12	0.25 ± 0.27	0.25±0.27	can be directly dissolved in water	–	–	–	–	–	–
CCCCC[C@H](O)CC[C@@H]1[C@H]2Cc3cccc(OCC(=O)O)c3C[C@H]2C[C@H]1O [Compound C1, Treprostinil sodium 5.5-hydrate]	46 ± 13.45	–	38 ± 8.86	–	0.38 ± 0.10	–	0.37 ± 0.07	–	can be directly dissolved in water	46+13.45 mmHg	38+8.86 mmHg	0.38+0.10	0.37+0.07	–	–
O=C(O)COC[C@H]1CC[C@H](COC(=O)N(c2ccccc2)c2ccc(Cl)cc2)CC1 [Ralinepag]	–	–	–	–	–	–	–	–	–	–	–	–	–	22	0.35
